Experiments:
[1] = target: human STING (Homo sapiens, UniProt Q86WV6); experiment: Fluorescence Thermal Shift assay (hSTING FTS binding assay); conditions: STING 0.1 mg/ml, 20 min preincubation, SyproOrange
In short: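 STING protein (final 0.1 mg/ml) preincubated 20 min with compound in 50 mM Hepes, 150 mM NaCl, pH 7.5, then SyproOrange dye added. Thermal unfolding monitored by fluorescence from 25 to 99° C. at a continuous ramp of 0.033° C./s.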

[2] = tested on: interferon regulatory factor (IRF) pathway in THP-1 dual cells; experiment: THP-1 Dual reporter assay, IRF pathway (luciferase); assay type: cell-based; conditions: Homo sapiens, THP1-Dual; 18 h stimulation, luminescence
In short: (§1)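 THP-1 dual reporter cells stimulated 18 h with STING agonist; culture medium then sampled. IRF activity read as ISG54/ISRE-driven luciferase luminescence; NF-κB activity read as SEAP absorbance at 630 nm (or 655 nm) after 2 h (or 1 h) at 37° C with detection medium.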

[3] = tested on: NF-κB pathway in THP-1 dual cells; experiment: THP-1 Dual reporter assay, NF-κB pathway (SEAP); assay type: cell-based; conditions: Homo sapiens, THP1-Dual; 18 h stimulation, absorbance; read-out: THP1 Dual EC50 (μM) NFkB
In short: as §1

[4] = tested on: CT26 murine colon carcinoma allografts; experiment: In vivo anti-tumor efficacy in CT26 allografts; set-up: species or system female Balb/C mice; conditions: for efficacy of dose: once every fifth day x3, 10% Captisol in PBS
Method: The efficacy of Example 1 was evaluated in established CT26 murine colon carcinoma allografts in female Balb/C mice. Example 1 was formulated in 10% Captisol in PBS and administered intravenously, once every fifth day on three occasions. The solution was prepared fresh prior to each administration. […] In both treatment groups tumor growth delay was observed when compared to the control group. By the end of the study, on day 42, there were 3 and 6 complete responses recorded for mice treated at 2 and 3 mg/kg E5Dx3, respectively.

[5] = tested on: CT26 cells; experiment: CT26 re-challenge study of mice with complete responses; assay type: in vivo, Balb/C mice
Method: Mice with complete responses were subjected to a re-challenge study. CT26 cells were injected into the flank opposite to an original site of inoculation. Naïve mice were included into the re-challenge study as a control of the tumor growth kinetics.

Sequence of human STING (Q86WV6 whole entry H232R): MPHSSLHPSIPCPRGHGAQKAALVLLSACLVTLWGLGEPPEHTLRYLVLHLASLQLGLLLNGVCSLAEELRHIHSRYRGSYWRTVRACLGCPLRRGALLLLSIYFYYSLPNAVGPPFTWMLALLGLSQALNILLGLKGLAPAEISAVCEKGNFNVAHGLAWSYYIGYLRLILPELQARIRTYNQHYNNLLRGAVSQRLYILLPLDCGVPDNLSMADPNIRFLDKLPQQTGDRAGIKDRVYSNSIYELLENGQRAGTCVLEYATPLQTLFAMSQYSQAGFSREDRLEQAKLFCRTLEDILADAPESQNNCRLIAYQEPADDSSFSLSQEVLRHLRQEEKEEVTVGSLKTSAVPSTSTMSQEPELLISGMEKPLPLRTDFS

| Compound | hSTING FTS binding assay (ΔT C.°) [1] | EC50 [2] [µM] | EC50 [3] [µM] | TGI (tumor growth inhibition) ([4]; 2 mg/kg E5Dx3, 11th day) [%] | complete responses (number of mice) ([4]; 2 mg/kg E5Dx3, day 42) | efficacy of dose ([4]; 2 mg/kg i.v.) | TGI (tumor growth inhibition) ([4]; 3 mg/kg E5Dx3, 11th day) [%] | complete responses (number of mice) ([4]; 3 mg/kg E5Dx3, day 42) | efficacy of dose ([4]; 3 mg/kg i.v.) | mice that developed tumors on re-challenge ([5]; six mice with complete responses dosed previously at 3 mg/kg, substantial delay in tumor growth) | mice that developed tumors on re-challenge ([5]; three mice with complete responses dosed previously at 2 mg/kg) |
| --- | --- | --- | --- | --- | --- | --- | --- | --- | --- | --- | --- |
| COc1cc(CN(Cc2cn(C)c3ccccc3c2=O)[C@H]2CCCN(c3cccnc3)C2)ccn1 [Example 1, 3-({[(2-methoxypyridin-4-yl)methyl][(3S)-1-(pyridin-3-yl)piperidin-3-yl]amino}methyl)-1-methyl-1,4-dihydroquinolin-4-one] | ++ (ΔTm>10° C.) | ≤ 1 | ≤ 1 | 52 | 3 | moderately efficacious dose | 80 | 6 | full efficacious dose | two of them developed a tumor | none of them developed tumors |
| Cc1ccc(N2CCC[C@H](N(Cc3ccnc(C)c3)Cc3cn(C4CC4)c4cc(N5CCNC6(CC6)C5)c(F)cc4c3=O)C2)cn1 [Example 52, 1-cyclopropyl-7-{4,7-diazaspiro[2.5]octan-7-yl}-6-fluoro-3-({[(3S)-1-(6-methylpyridin-3-yl)piperidin-3-yl][(2-methylpyridin-4-yl)methyl]amino}methyl)-1,4-dihydroquinolin-4-one] | ++ (ΔTm>10° C.) | ≤ 1 | ≤ 1 | – | – | – | – | – | – | – | – |
| Cc1cc(CN(Cc2cn(C)c3ccccc3c2=O)[C@H]2CCCN(c3nnc(C)o3)C2)ccn1 [Example 53, 1-methyl-3-({[(3S)-1-(5-methyl-1,3,4-oxadiazol-2-yl)piperidin-3-yl][(2-methylpyridin-4-yl)methyl]amino}methyl)-1,4-dihydroquinolin-4-one] | + (ΔTm<10° C.) | ≥ 10 | 1 to 10 | – | – | – | – | – | – | – | – |
| Cn1cc(CN(Cc2ccns2)[C@H]2CCCN(c3cccnc3)C2)c(=O)c2ccccc21 [Example 55, 1-methyl-3-({[(3S)-1-(pyridin-3-yl)piperidin-3-yl][(1,2-thiazol-5-yl)methyl]amino}methyl)-1,4-dihydroquinolin-4-one] | + (ΔTm<10° C.) | ≥ 10 | ≥ 10 | – | – | – | – | – | – | – | – |
| Cc1ccc(N2CCC[C@H](N(Cc3ccnc(C)c3)Cc3cn(C4CC4)c4cc(Cl)ncc4c3=O)C2)cn1 [Example 56, 7-chloro-1-cyclopropyl-3-({[(3S)-1-(6-methylpyridin-3-yl)piperidin-3-yl][(2-methylpyridin-4-yl)methyl]amino}methyl)-1,4-dihydro-1,6-naphthyridin-4-one] | + (ΔTm<10° C.) | ≤ 1 | 1 to 10 | – | – | – | – | – | – | – | – |
| Cc1ccc(N2CCC[C@H](N(Cc3ccnc(C)c3)Cc3c[nH]c4ccccc4c3=O)C2)cn1 [Example 58, 3-({[(3S)-1-(6-methylpyridin-3-yl)piperidin-3-yl][(2-methylpyridin-4-yl)methyl]amino}methyl)-1,4-dihydroquinolin-4-one] | ++ (ΔTm>10° C.) | ≤ 1 | ≤ 1 | – | – | – | – | – | – | – | – |
| Cc1ccc(N2CCC[C@H](N(Cc3ccnc(C)c3)Cc3cn(C4CC4)c4cc(O)c(F)cc4c3=O)C2)cn1 [Example 59, 1-cyclopropyl-6-fluoro-7-hydroxy-3-({[(3S)-1-(6-methylpyridin-3-yl)piperidin-3-yl][(2-methylpyridin-4-yl)methyl]amino}methyl)-1,4-dihydroquinolin-4-one] | ++ (ΔTm>10° C.) | ≤ 1 | 1 to 10 | – | – | – | – | – | – | – | – |

Source: patent publication US12344606B2, “Next-generation modulators of stimulator of interferon genes (STING)” (RYVU THERAPEUTICS S.A., priority 2019, dated 2025)
